Source: ChEMBL document CHEMBL1154947, “Discovery of N-(5,6-diarylpyridin-2-yl)amide derivatives as potent and selective A(2B) adenosine receptor antagonists” (Bioorg Med Chem Lett, 2010)

Key:
Adenosine receptor A2a [1] = molecular target: T1, Adenosine receptor A2a (Homo sapiens, UniProt P29274); assay: Displacement of [3H]ZM241385 from human adenosine A2A receptor expressed in human HeLa cells after 1 hr by scintillation proximity assay; assay type: cell-based
Adenosine receptor A3 = molecular target: T2, Adenosine receptor A3 (Homo sapiens, UniProt P0DMS8); assay: Displacement of [3H]NECA from human adenosine A3 receptor expressed in human HeLa cells after 3 hrs by filtration binding assay; assay type: cell-based
T2 sequence (P0DMS8 whole entry): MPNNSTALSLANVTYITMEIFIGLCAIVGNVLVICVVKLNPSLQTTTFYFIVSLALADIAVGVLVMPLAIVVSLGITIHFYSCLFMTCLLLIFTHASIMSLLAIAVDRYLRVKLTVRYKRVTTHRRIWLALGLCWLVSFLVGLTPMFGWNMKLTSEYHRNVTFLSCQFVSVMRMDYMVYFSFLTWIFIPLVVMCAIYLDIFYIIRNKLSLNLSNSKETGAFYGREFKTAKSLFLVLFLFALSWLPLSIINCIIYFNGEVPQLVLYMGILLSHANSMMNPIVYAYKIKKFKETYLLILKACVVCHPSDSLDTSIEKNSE

Adenosine receptor A2b = molecular target: T3, Adenosine receptor A2b (Homo sapiens, UniProt P29275); assay: biochemical
T3 sequence (P29275 whole entry): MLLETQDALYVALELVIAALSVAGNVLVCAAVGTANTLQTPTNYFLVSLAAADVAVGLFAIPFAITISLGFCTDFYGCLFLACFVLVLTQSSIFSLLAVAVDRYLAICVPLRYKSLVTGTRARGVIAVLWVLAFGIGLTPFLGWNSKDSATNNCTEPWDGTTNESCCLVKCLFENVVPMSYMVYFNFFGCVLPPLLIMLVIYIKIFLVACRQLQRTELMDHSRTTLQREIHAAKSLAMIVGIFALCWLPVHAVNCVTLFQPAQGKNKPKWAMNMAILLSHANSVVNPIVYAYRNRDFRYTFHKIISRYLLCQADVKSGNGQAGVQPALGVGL
Description: Displacement of [3H]DPCPX from human adenosine A2B receptor expressed in HEK293 cells after 60 mins by filtration binding assay

Adenosine receptor A1 = molecular target: T4, Adenosine receptor A1 (Homo sapiens, UniProt P30542); assay: biochemical
T4 sequence (P30542 whole entry): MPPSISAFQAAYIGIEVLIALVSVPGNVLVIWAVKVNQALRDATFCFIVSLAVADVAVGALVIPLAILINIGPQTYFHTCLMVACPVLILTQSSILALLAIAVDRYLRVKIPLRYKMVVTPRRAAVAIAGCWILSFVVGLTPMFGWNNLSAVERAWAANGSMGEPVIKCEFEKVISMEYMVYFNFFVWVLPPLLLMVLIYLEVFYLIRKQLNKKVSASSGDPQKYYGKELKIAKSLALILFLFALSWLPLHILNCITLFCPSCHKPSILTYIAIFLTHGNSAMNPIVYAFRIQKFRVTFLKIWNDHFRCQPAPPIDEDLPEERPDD
Description: Displacement of [3H]DPCPX from human adenosine A1 receptor expressed in CHO cells after 90 mins by filtration binding assay

[2] = molecular target: T5, Adenosine receptor A3 (Homo sapiens) (UniProt P0DMS8); assay: Inhibition of [3H]NECA binding to human adenosine A3 receptor expressed in human HeLa cells at 1 uM after 3 hrs by filtration binding assay; assay type: cell-based
T5 sequence (whole entry): T2 sequence (P0DMS8 whole entry)

[3] = Metabolic stability in rat liver microsomes assessed as turnover at 5 uM after 30 mins in presence of NADPH; assay type: ADME, Microsome; details: read-out: Activity
[4] = Metabolic stability in human liver microsomes assessed as turnover at 5 uM after 30 mins in presence of NADPH; assay type: ADME, Microsome; details: read-out: Activity
[5] = Terminal half life in rat at 1 mg/kg, iv; assay type: ADME, organism-based; design: dose 1 mg/kg, route intravenous; details: in vivo, read-out: beta t1/2 (converted)
[6] = Cmax in rat at 1 mg/kg, iv; assay type: ADME, organism-based; design: dose 1 mg/kg, route intravenous; details: in vivo
[7] = Clearance in rat at 1 mg/kg, iv; assay type: ADME, organism-based; design: dose 1 mg/kg, route intravenous; details: in vivo
[8] = AUC (0 to infinity) in rat at 1 mg/kg, iv; assay type: ADME, organism-based; design: time infinity, dose 1 mg/kg, route intravenous; details: plasma
[9] = Volume of distribution at steady state in rat at 1 mg/kg, iv; assay type: ADME, organism-based; design: dose 1 mg/kg, route intravenous; details: in vivo, read-out: Vdss
[10] = molecular target: T6, Adenosine receptor A2b (Homo sapiens) (UniProt P29275); assay: Inhibition of [3H]DPCPX binding to human adenosine A2B receptor expressed in HEK293 cells at 1 uM after 60 mins by filtration binding assay; assay type: cell-based
T6 sequence (whole entry): T3 sequence (P29275 whole entry)

Adenosine receptor A2a [11] = molecular target: T1, Adenosine receptor A2a; assay: Inhibition of [3H]ZM241385 binding to human adenosine A2A receptor expressed in human HeLa cells at 1 uM after 1 hr by scintillation proximity assay; assay type: cell-based
[12] = molecular target: T7, Adenosine receptor A1 (Homo sapiens) (UniProt P30542); assay: Inhibition of [3H]DPCPX binding to human adenosine A1 receptor expressed in CHO cells at 1 uM after 90 mins by filtration binding assay; assay type: cell-based
T7 sequence (whole entry): T4 sequence (P30542 whole entry)

[13] = Metabolic stability in rat liver microsomes assessed as turnover at 5 uM after 30 mins in absence of NADPH; assay type: ADME, Microsome; details: read-out: Activity
[14] = Tmax in rat at 10 mg/kg, po; assay type: ADME, organism-based; design: dose 10 mg/kg, route oral; details: in vivo
[15] = Oral bioavailability in rat at 10 mg/kg; assay type: ADME, organism-based; details: in vivo
[16] = Metabolic stability in human liver microsomes assessed as turnover at 5 uM after 30 mins in absence of NADPH; assay type: ADME, Microsome; details: read-out: Activity

T1 sequence (P29274 whole entry): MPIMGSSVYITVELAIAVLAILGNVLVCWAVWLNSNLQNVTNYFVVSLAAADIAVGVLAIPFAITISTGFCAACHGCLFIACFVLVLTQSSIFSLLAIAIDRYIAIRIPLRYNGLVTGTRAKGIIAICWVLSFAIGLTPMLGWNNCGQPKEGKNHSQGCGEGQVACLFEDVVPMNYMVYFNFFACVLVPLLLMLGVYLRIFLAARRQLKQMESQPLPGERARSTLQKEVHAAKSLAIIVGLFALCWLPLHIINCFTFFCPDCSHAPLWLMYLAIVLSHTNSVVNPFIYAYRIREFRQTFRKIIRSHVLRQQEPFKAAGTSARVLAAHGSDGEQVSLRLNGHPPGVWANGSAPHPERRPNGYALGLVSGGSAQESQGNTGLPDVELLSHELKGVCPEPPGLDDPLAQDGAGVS

N#Cc1ccc(NC(=O)C2CC2)nc1-c1ccco1
Ki (Adenosine receptor A2a [1]): 12 nM | Ki (Adenosine receptor A3): 326 nM | Ki (Adenosine receptor A2b): 41 nM | Ki (Adenosine receptor A1): 289 nM

O=C(Nc1ccc(-c2ccncc2)c(-c2ncco2)n1)C1CC1
Ki (Adenosine receptor A2a [1]): 1360 nM | inhibition [2]: 22% | metabolised at 0.5 h, 5 µM [3]: 27% | metabolised at 0.5 h, 5 µM [4]: 14% | half-life [5]: 54 min | Cmax [6]: 761 ng/mL | clearance [7]: 31.7 mL/min/kg | AUC(0-inf) [8]: 533 ng·h/mL | Vd [9]: 1.6 L/kg | Ki (Adenosine receptor A2b): 32 nM | Ki (Adenosine receptor A1): 702 nM

c1cncc(Nc2ncc(-c3ccncn3)c(-c3ccco3)n2)c1
Ki (Adenosine receptor A3): 1040 nM | Ki (Adenosine receptor A1): 2820 nM

O=C(Nc1ccc(-c2ccncc2Cl)c(-c2ccco2)n1)C1CC1
Ki (Adenosine receptor A2a [1]): 147 nM | Ki (Adenosine receptor A3): 1870 nM | Ki (Adenosine receptor A2b): 5 nM | Ki (Adenosine receptor A1): 250 nM

O=C(Nc1ccc(-c2ccncc2)c(-c2ccco2)n1)C1CC1
Ki (Adenosine receptor A2a [1]): 30 nM | Ki (Adenosine receptor A3): 1340 nM | Ki (Adenosine receptor A2b): 1 nM | Ki (Adenosine receptor A1): 82 nM

O=C(Nc1ccc(-c2ccncc2)cn1)C1CC1
inhibition [10]: 29% | inhibition (Adenosine receptor A2a [11]): 2% | inhibition [12]: 8% | inhibition [2]: 7%

O=C(Nc1ccc(-c2ccncc2)c(-c2cncs2)n1)C1CC1
Ki (Adenosine receptor A2a [1]): 813 nM | Ki (Adenosine receptor A3): 4850 nM | Ki (Adenosine receptor A2b): 78 nM | Ki (Adenosine receptor A1): 320 nM

Cc1ccc(-c2nc(NC(=O)C3CC3)ccc2-c2ccncc2)o1
Ki (Adenosine receptor A2a [1]): 11 nM | Ki (Adenosine receptor A3): 189 nM | Ki (Adenosine receptor A2b): 5 nM | Ki (Adenosine receptor A1): 25 nM

CC(=O)Nc1ccc(-c2ccncn2)c(-c2ccco2)n1
inhibition (Adenosine receptor A2a [11]): 20% | inhibition [12]: 7% | inhibition [2]: 28% | Ki (Adenosine receptor A2b): 47 nM

O=C(Nc1ccc(-c2ccncc2)c(-c2ccncn2)n1)C1CC1
inhibition (Adenosine receptor A2a [11]): 9% | inhibition [12]: 3% | inhibition [2]: 3% | Ki (Adenosine receptor A2b): 208 nM

CC(=O)Nc1ccc(-c2ccncc2)c(-c2ccco2)n1
Ki (Adenosine receptor A2a [1]): 209 nM | Ki (Adenosine receptor A3): 333 nM | Ki (Adenosine receptor A2b): 7 nM | Ki (Adenosine receptor A1): 358 nM

O=C(Nc1ccc(-c2ccncn2)c(-c2ccco2)n1)C1CC1
Ki (Adenosine receptor A2a [1]): 239 nM | Ki (Adenosine receptor A3): 3750 nM | metabolised at 0.5 h, 5 µM [13]: 27% | half-life [5]: 30 min | Cmax [6]: 538 ng/mL | clearance [7]: 63.3 mL/min/kg | AUC(0-inf) [8]: 267 ng·h/mL | Vd [9]: 1.6 L/kg | Tmax [14]: 18 min | bioavailability [15]: 39% | Ki (Adenosine receptor A2b): 4 nM | Ki (Adenosine receptor A1): 931 nM

O=C(Nc1ccc(-c2ccncc2)c(Cl)n1)C1CC1
inhibition (Adenosine receptor A2a [11]): 7% | inhibition [12]: 5% | inhibition [2]: 14% | Ki (Adenosine receptor A2b): 380 nM

O=C(Nc1ccc(-c2ccncc2)c(-c2cccc(F)c2)n1)C1CC1
Ki (Adenosine receptor A2a [1]): 57 nM | Ki (Adenosine receptor A3): 715 nM | Ki (Adenosine receptor A2b): 2 nM | Ki (Adenosine receptor A1): 14 nM

O=C(Nc1ccc(-c2ccncc2)c(-n2cccn2)n1)C1CC1
Ki (Adenosine receptor A2a [1]): 1440 nM | inhibition [12]: 22% | inhibition [2]: 2% | Ki (Adenosine receptor A2b): 72 nM

CC(=O)c1nc(NC(=O)C2CC2)ccc1-c1ccncc1
inhibition (Adenosine receptor A2a [11]): 2% | inhibition [12]: 6% | inhibition [2]: 2% | Ki (Adenosine receptor A2b): 3670 nM

O=C(Nc1ccc(-c2ccncc2)c(-c2cnco2)n1)C1CC1
Ki (Adenosine receptor A2a [1]): 635 nM | inhibition [2]: 5% | Ki (Adenosine receptor A2b): 30 nM | Ki (Adenosine receptor A1): 635 nM

O=C(Nc1ccc(-c2ccncc2)c(-c2cccnc2)n1)C1CC1
Ki (Adenosine receptor A2a [1]): 1470 nM | inhibition [12]: 21% | inhibition [2]: 10% | Ki (Adenosine receptor A2b): 33 nM

CC(=O)Nc1ccc(-c2ccncc2)c(-c2cccc(F)c2)n1
Ki (Adenosine receptor A2a [1]): 286 nM | Ki (Adenosine receptor A3): 471 nM | Ki (Adenosine receptor A2b): 30 nM | Ki (Adenosine receptor A1): 58 nM

O=C(Nc1ccc(-c2ccncc2)c(-c2cocn2)n1)C1CC1
Ki (Adenosine receptor A2a [1]): 1370 nM | inhibition [12]: 1% | inhibition [2]: 12% | Ki (Adenosine receptor A2b): 134 nM

CC(=O)Nc1ncc(-c2ccncn2)c(-c2ccco2)n1
inhibition (Adenosine receptor A2a [11]): 10% | inhibition [12]: 2% | inhibition [2]: 2% | Ki (Adenosine receptor A2b): 380 nM

O=C(Nc1ccc(-c2ccncc2F)c(-c2ccco2)n1)C1CC1
Ki (Adenosine receptor A2a [1]): 150 nM | inhibition [2]: 11% | metabolised at 0.5 h, 5 µM [13]: 99% | metabolised at 0.5 h, 5 µM [16]: 77% | Ki (Adenosine receptor A2b): 1 nM | Ki (Adenosine receptor A1): 374 nM

O=C(Nc1ccc(-c2ccncc2)c(-c2ccc(F)cc2)n1)C1CC1
Ki (Adenosine receptor A2a [1]): 39 nM | inhibition [2]: 27% | Ki (Adenosine receptor A2b): 4 nM | Ki (Adenosine receptor A1): 35 nM

O=C(Nc1ccc(-c2ccncc2)c(-c2ccncc2)n1)C1CC1
Ki (Adenosine receptor A2a [1]): 163 nM | inhibition [2]: 6% | Ki (Adenosine receptor A2b): 14 nM | Ki (Adenosine receptor A1): 338 nM

O=C(Nc1ccc(-c2ccncc2)c(-c2nccs2)n1)C1CC1
Ki (Adenosine receptor A2a [1]): 302 nM | inhibition [2]: 11% | Ki (Adenosine receptor A2b): 42 nM | Ki (Adenosine receptor A1): 914 nM

O=C(Nc1ccc(-c2ccncc2)c(-c2cc[nH]n2)n1)C1CC1
inhibition (Adenosine receptor A2a [11]): 4% | inhibition [12]: 3% | inhibition [2]: 1% | Ki (Adenosine receptor A2b): 202 nM

O=C(Nc1ccc(Br)c(-c2ccco2)n1)C1CC1
Ki (Adenosine receptor A2a [1]): 35 nM | Ki (Adenosine receptor A3): 617 nM | Ki (Adenosine receptor A2b): 28 nM | Ki (Adenosine receptor A1): 285 nM

O=C(Nc1ccc(-c2ccncc2)c(-c2ccccc2F)n1)C1CC1
Ki (Adenosine receptor A2a [1]): 61 nM | Ki (Adenosine receptor A3): 817 nM | metabolised at 0.5 h, 5 µM [13]: 100% | metabolised at 0.5 h, 5 µM [16]: 86% | Ki (Adenosine receptor A2b): 2 nM | Ki (Adenosine receptor A1): 123 nM

O=C(Nc1ccc(-c2ccncc2)c(-c2ccccn2)n1)C1CC1
Ki (Adenosine receptor A2a [1]): 862 nM | inhibition [2]: 2% | metabolised at 0.5 h, 5 µM [4]: 0% | metabolised at 0.5 h, 5 µM [13]: 12% | half-life [5]: 30 min | Cmax [6]: 822 ng/mL | clearance [7]: 35 mL/min/kg | AUC(0-inf) [8]: 485 ng·h/mL | Vd [9]: 1 L/kg | Ki (Adenosine receptor A2b): 47 nM | Ki (Adenosine receptor A1): 940 nM

O=C(Nc1ccc(C2N=NN=N2)c(-c2ccco2)n1)C1CC1
Ki (Adenosine receptor A2a [1]): 1640 nM | inhibition [10]: 23% | inhibition [12]: 1% | inhibition [2]: 8%
